# Source: US10357036B2, “Compounds for controlling arthropods” (priority 2015, dated 2019)
# Where two headings read alike, the source gives them in different places.
# Experiments:
# Spodoptera frugiperda = Spodoptera frugiperda spray test; assay type: in vivo; conditions: 100 g/ha, after 7 days; for pest or weed control at 100 g/ha: Spodoptera frugiperda, 168 h, read-out: efficacy
# Phaedon cochleariae = Phaedon cochleariae spray test; conditions: for pest or weed control at 100 g/ha: Phaedon cochleariae, 168 h, read-out: efficacy; for efficacy: 100 g/ha, after 7 days
# Tetranychus urticae = Tetranychus urticae spray test, OP-resistant (bean leaf discs); assay type: in vivo; conditions: 100 g/ha; after 6 days
# Description: (§1) After 6 days, the efficacy in % is determined.
# Rhipicephalus sanguineus = Rhipicephalus sanguineus in vitro contact test with adult brown dog ticks; assay type: in vivo; conditions: application rate 5 μg/cm^2 (=500 g/ha); after 48 h; dead or moribund ticks
# Summary of the method: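 Adult Rhipicephalus sanguineus (5-10 per tube) held in glass tubes coated with compound from acetone solution, 900 ppm giving 5 μg/cm^2, in the dark at room temperature. After 48 h ticks put on a 45-50° C hotplate up to 5 min; motionless or uncoordinated ticks scored dead/moribund as % efficacy.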
# Ctenocephalides felis [1] = experiment: Ctenocephalides felis oral test; assay type: in vivo; conditions: 100 ppm in citrated cattle blood; after 2 days
# Ctenocephalides felis [2] = experiment: Ctenocephalides felis in vitro contact test with adult cat fleas; assay type: in vivo; conditions: application rate 5 μg/cm^2 (=500 g/ha); after 48 h; dead or moribund fleas
# Summary of the method: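 Glass tubes were coated with compound in acetone (900 ppm solution gives 5 μg/cm²), dried, then loaded with 5–10 adult cat fleas. Held horizontal at room temperature and ambient humidity for 48 h. Efficacy is the % of fleas dead or moribund (motionless or uncoordinated after knock-down).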
# Boophilus microplus = Boophilus microplus injection test; assay type: in vivo; conditions: 20 μg/animal; assessed after 7 days
# Description: (§2) • Solvent: dimethyl sulfoxide
# 1 μl of the active ingredient solution is injected into the abdomen of 5 engorged adult female cattle ticks (Boophilus microplus). The animals are transferred into dishes and kept in a climate-controlled room.
# Myzus persicae = Myzus persicae spray test (Chinese cabbage leaf discs); assay type: in vivo; conditions: 100 g/ha; after 6 days
# Description: as §1
# [3] = tested on: cattle ticks (Boophilus microplus) Parkhurst strain, SP-resistant; experiment: Boophilus microplus dip test; assay type: in vivo; conditions: 100 ppm; assessed after 7 days
# Description: • Test animals: cattle ticks (Boophilus microplus) Parkhurst strain, SP-resistant • Solvent: dimethyl sulfoxide
# 10 mg of active ingredient are dissolved in 0.5 ml of dimethyl sulfoxide. To produce a suitable formulation, the active ingredient solution is diluted with water to the concentration desired in each case.
# This active ingredient formulation is pipetted into tubes. 8-10 engorged adult female cattle ticks (Boophilus microplus) are transferred into a further tube with holes. The tube is immersed into the active ingredient formulation, and all the ticks are completely wetted. After the liquid has run out, the ticks are transferred on filter discs into plastic dishes and stored in a climate-controlled room.
# Efficacy is assessed after 7 days by laying of fertile eggs. Eggs which are not visibly fertile are stored in a climate-controlled cabinet until the larvae hatch after about 42 days. An efficacy of 100% means that none of the ticks has laid any fertile eggs; 0% means that all the eggs are fertile.
# Musca domestica = Musca domestica test; assay type: in vivo; conditions: 100 ppm; adult houseflies; after 2 days
# Description: as §2
# To produce a suitable active ingredient formulation, 10 mg of active ingredient are mixed with 0.5 ml of dimethyl sulfoxide, and the concentrate is diluted with water to the desired concentration.
# Vessels containing a sponge treated with sugar solution and the active ingredient formulation of the desired concentration are populated with 10 adult houseflies (Musca domestica).
# Meloidogyne incognita = Meloidogyne incognita test; assay type: in vivo; conditions: 20 ppm; after 14 days
# Description: • Solvent: 125.0 parts by weight of acetone
# To produce a suitable active compound preparation, 1 part by weight of active compound is mixed with the stated amount of solvent and the concentrate is diluted to the desired concentration with water.
# Vessels are filled with sand, active compound solution, an egg/larvae suspension of the southern root-knot nematode (Meloidogyne incognita) and lettuce seeds. The lettuce seeds germinate and the plants develop. The galls develop on the roots.
# After 14 days, the nematicidal efficacy in % is determined by the formation of galls. 100% means that no galls were found; 0% means that the number of galls on the treated plants corresponds to the untreated control.
# [4] = reversed-phase C18 HPLC column, logP, HPLC, C18, acetonitrile/water with formic acid (note a)
# [5] = reversed-phase C18 HPLC column, logP^a, HPLC-MS method a)
Structure (SMILES),pest or weed control at 100 g/ha (Spodoptera frugiperda) [%],pest or weed control at 100 g/ha (Phaedon cochleariae) [%],chromatographic logP [4],efficacy (Tetranychus urticae) [%],efficacy (Rhipicephalus sanguineus) [%],efficacy (Spodoptera frugiperda) [%],efficacy (Phaedon cochleariae) [%],efficacy (rate of extermination) (Ctenocephalides felis [1]) [%],efficacy (Ctenocephalides felis [2]) [%],efficacy (laying of fertile eggs) (Boophilus microplus) [%],efficacy (Myzus persicae) [%],efficacy (laying of fertile eggs) [3] [%],efficacy (rate of extermination) (Musca domestica) [%],chromatographic logP [5],nematicidal efficacy (formation of galls) (Meloidogyne incognita) [%],"chromatographic logP (reversed-phase C18 HPLC column, logP^a, HPLC-MS method a), reversed-phase column (C18))"
"CC(=O)NCc1cc(-c2cn(-c3c(Cl)cc(C(F)(C(F)(F)F)C(F)(F)F)cc3Cl)nn2)ccc1Cl [I-T7-01, N-(2-chloro-5-{1-[2,6-dichloro-4-(1,1,1,2,3,3,3-heptafluoropropan-2-yl)phenyl]-1H-1,2,3-triazol-4-yl}benzyl)acetamide]",100,100,3.94,90,–,–,–,–,–,–,–,–,–,–,–,–
CCC(=O)NCc1cc(-c2cnn(-c3c(Cl)cc(C(F)(C(F)(F)F)C(F)(F)F)cc3C(F)F)c2)ccc1F [Ia-23],–,–,–,100,100,100,100,100,100,100,90,100,100,–,–,–
CC(=O)NCc1c(F)ccc(-c2cnn(-c3c(Cl)cc(C(F)(C(F)(F)F)C(F)(F)F)cc3C(F)F)c2)c1F [Ia-142],–,–,–,100,80,100,100,100,100,100,90,80,100,–,–,–
"CCC(=O)NCc1cc(-c2cnn(-c3c(Cl)cc(C(F)(C(F)(F)F)C(F)(F)F)cc3[S+](C)[O-])c2)ccc1F (stereo not drawn) [Ia-45, N-(5-{1-[2-chloro-4-(1,1,1,2,3,3,3-heptafluoropropan-2-yl)-6-(methylsulfinyl)phenyl]-1H-pyrazol-4-yl}-2-fluorobenzyl)propanamide]",–,100,3.52,–,–,–,–,–,–,–,–,–,–,3.52,–,–
CC(=O)NCc1cc(-c2cnn(-c3c(Cl)cc(C(F)(C(F)(F)F)C(F)(F)F)cc3Cl)c2)ccc1C [Ia-90],–,–,–,100,100,100,100,100,100,100,90,100,100,–,–,–
"CCS(=O)(=O)N(C)Cc1cc(-c2cnn(-c3c(Cl)cc(C(F)(C(F)(F)F)C(F)(F)F)cc3Cl)c2)ccc1Cl [Ic-03, N-(2-chloro-5-{1-[2,6-dichloro-4-(1,1,1,2,3,3,3-heptafluoropropan-2-yl)phenyl]-1H-pyrazol-4-yl}benzyl)-N-methylethanesulfonamide]",100,100,5.21,–,–,–,–,–,–,–,–,–,–,–,–,–
CC(=O)N(C)Cc1cc(-c2cnn(-c3c(Cl)cc(C4(C(F)(F)F)CC4)cc3Cl)c2)ccc1F [Ia-125],–,–,–,–,–,–,–,–,–,–,–,–,–,–,100,–
CC(=O)NCc1cc(-c2cnn(-c3c(Cl)cc(C(F)(C(F)(F)F)C(F)(F)F)cc3C(F)(F)F)c2)ccc1C [Ia-79],–,–,–,100,100,100,–,100,100,100,90,100,100,–,–,–
"N#CCC(=O)NCc1cc(-c2cnn(-c3c(Cl)cc(C(F)(C(F)(F)F)C(F)(F)F)cc3Br)c2)ccc1Cl [Ia-137, N-(5-{1-[2-bromo-6-chloro-4-(1,1,1,2,3,3,3-heptafluoropropan-2-yl)phenyl]-1H-pyrazol-4-yl}-2-chlorobenzyl)-2-cyanoacetamide]",100,100,4.28,100,–,–,–,100,100,100,–,–,100,–,–,4.33
"O=C(NCc1cc(-c2cnn(-c3c(Cl)cc(C(F)(C(F)(F)F)C(F)(F)F)cc3Cl)c2)ccc1Cl)C1CC1 [Ia-25, N-(2-chloro-5-{1-[2,6-dichloro-4-(1,1,1,2,3,3,3-heptafluoropropan-2-yl)phenyl]-1H-pyrazol-4-yl}benzyl)cyclopropanecarboxamide]",100,–,4.8,–,80,–,–,100,100,100,–,–,100,4.8,–,–
"CCC(=O)NCc1cc(-c2cnn(-c3c(Cl)cc(C(F)(C(F)(F)F)C(F)(F)F)cc3S(C)(=O)=O)c2)ccc1F [Ia-46, N-(5-{1-[2-chloro-4-(1,1,1,2,3,3,3-heptafluoropropan-2-yl)-6-(methylsulfonyl)phenyl]-1H-pyrazol-4-yl}-2-fluorobenzyl)propanamide]",–,–,3.65,70,–,–,–,–,–,–,–,–,–,3.65,–,–
"CCS(=O)(=O)NCc1cc(-c2cnn(-c3c(Cl)cc(C(F)(C(F)(F)F)C(F)(F)F)cc3Cl)c2)ccc1Cl [Ic-02, N-(2-chloro-5-{1-[2,6-dichloro-4-(1,1,1,2,3,3,3-heptafluoropropan-2-yl)phenyl]-1H-pyrazol-4-yl}benzyl)ethanesulfonamide]",100,100,4.65,–,–,–,–,–,–,–,–,–,–,–,–,–
"CCC(=O)NCc1cc(-c2cnn(-c3c(Cl)cc(C(F)(C(F)(F)F)C(F)(F)F)cc3SC)c2)ccc1F [Ia-10, N-(5-{1-[2-chloro-4-(1,1,1,2,3,3,3-heptafluoropropan-2-yl)-6-(methylsulfanyl)phenyl]-1H-pyrazol-4-yl}-2-fluorobenzyl)propanamide]",100,100,4.29,100,100,–,–,100,100,100,–,–,100,4.29,–,–
CCC(=O)NCc1cc(-c2cnn(-c3c(C)cc(C(F)(C(F)(F)F)C(F)(F)F)cc3Cl)c2)ccc1F [Ia-66],–,–,–,100,100,100,100,100,100,100,70,95,100,–,–,–
"CCC(=O)NC1CCc2ccc(-c3cnn(-c4c(Cl)cc(C(F)(C(F)(F)F)C(F)(F)F)cc4OC(F)(F)F)c3)cc21 (stereo not drawn) [I-Tc-01, N-(6-{1-[2-chloro-4-(1,1,1,2,3,3,3-heptafluoropropan-2-yl)-6-(trifluoromethoxy)phenyl]-1H-pyrazol-4-yl}-2,3-dihydro-1H-inden-1-yl)propanamide]",100,–,4.84,–,100,–,–,100,–,100,–,–,–,–,–,–
CC(=O)NCc1cc(-c2cnn(-c3c(C)cc(C(F)(C(F)(F)F)C(F)(F)F)cc3Cl)c2)ccc1F [Ia-65],–,–,–,100,100,100,100,100,100,100,90,100,100,–,–,–
